From patent US20040092515A1, “Diaminoquinazoline esters for use as dihydrofolate reductase inhibitors” (priority 2001, published 2004) come the findings set out here.

Turning to `COc1cc(C(=O)OCc2ccc3nc(N)nc(N)c3c2)cc(OC)c1OC`, the melting point (in general, the temperature of the solid-liquid transition) lay in the range of 223 to 227 °C. `COc1ccc(OC)c(C(=O)OCc2ccc3nc(N)nc(N)c3c2)c1` registered a melting point of 195 to 197 °C.
